From publication PMC9798496 (ACS Omega, 2022)
Entries after “also recorded” stand apart in the source; their conditions may differ.

System: healthy mice
Experiment: MicroPET/CT biodistribution in healthy mice
Assay type: in vivo
Details: PET/CT

- uptake in the center of the brain: about 1.6 SUV
- uptake in the center of the heart: about 2.7 SUV
- brain uptake of [18F]FDG relative to [18F]Glc1 (center of the brain): about 20 times
- heart uptake of [18F]FDG relative to [18F]Glc1 (center of the heart): about 14 times
Compound: OC[C@H]1OC(O)[C@H](F)[C@@H](O)[C@@H]1O (some centres unmarked) [[^18F]FDG, fluorodeoxyglucose]
- site of uptake, metabolism and elimination: typical metabolism in the heart, brain, and brown fat; also recorded: uptake was observed in the brain and heart
